Experimental findings from article PMC9181926, “Synthesis and Antiproliferative Activity of Novel Dehydroabietic Acid-Chalcone Hybrids” (Molecules, 2022) are described below.

One data set has as its system MCF-7 cells. The data set can be described thus: Antiproliferation assay (cell counting, 48 h) in MCF-7 breast cancer cells. In kind it is cell-based, human. The conditions noted are these: for Selectivity Index for MCF-7: FB IC50 relative to MCF-7 IC50; for IC50: MCF-7 cells, 48 h incubation, cell counting. The text has this:
(§1) Regarding the different characteristics of the used breast cancer cell lines, we can notice that MDA-MB-231 and Hs578T are triple negative.
(§2) Primary skin normal fibroblasts were kindly provided by Prof. Emer.

Data set [1] relates to MDA-MB-231, MCF-7 and Hs578T breast cancer cell lines.
Procedure: (§3) The antiproliferative activity of the synthesized DHA-chalcone hybrids 31–53 was evaluated using three characteristic breast carcinoma cell lines, MDA-MB-231, MCF-7, and Hs578T. For the sake of comparison, 5-FU, a widely used drug in clinical practice, was selected as positive control.
(§4) MCF-7 (ER-positive breast cancer cells, epithelial, low metastatic), MDA-MB-231, and Hs578T (triple negative breast cancer cells, mesenchymal, high metastatic) were obtained from American Type Culture Collection (ATCC) and cultured with DMEM high glucose/10% Fetal Bovine Serum (FBS) (supplied by Biosera). […] Cancer cells were seeded in 24 well plates (30,000 MCF-7 cells/well, 30.000 MDA-MB-231 cells/well, 25,000 Hs578T cells/well) and fibroblasts in 12 well plates (40,000 cells/well) and incubated in proper medium completed with 10% FBS for 48 h. Compounds were diluted in DMSO and working dilutions were prepared ranging from 5 to 200 μΜ for cancer cells and 1 to 100 μM for fibroblasts. All cells were incubated with working dilutions for 48 h. Afterwards, cells were detached by trypsinization, centrifuged at 3000 rpm for 3 min, and counted using a hemocytometer. Antiproliferation values were then calculated relatively to cancer or normal cells treated only with DMSO. […] IC50 values were calculated using GraphPad Prism 5 (Graph Pad Software).
For the next data set, the system named is Hs578T cells. The experiment in a line: Antiproliferation assay (cell counting, 48 h) in Hs578T breast cancer cells. The class given is cell-based, human. As to conditions: for Selectivity Index for Hs578T: FB IC50 relative to Hs578T IC50; for IC50: Hs578T cells, 48 h incubation, cell counting.
Text: as §1, §2

For the next data set, the system named is MDA-MB-231 cells. The data set can be described thus: Antiproliferation assay (cell counting, 48 h) in MDA-MB-231 breast cancer cells. As to conditions: for Selectivity Index for MDA-MB-231: FB IC50 relative to MDA-MB-231 IC50; for IC50: MDA-MB-231 cells, 48 h incubation, cell counting. The class given is cell-based, human.
Text: as §1, §2

Data set [2] deals with MDA-MB-231, MCF-7 and Hs578T breast cancer cell lines. The experiment in a line: cells. As to conditions: Homo sapiens, read-out: IC50 against all the cancer cell lines.
Procedure: as §3, §4
Data set [3] has as its system normal primary fibroblasts (FB). The experiment in a line: cells. The class given is cell-based, human. The conditions noted are these: normal primary human fibroblasts, 48 h incubation, cell counting.
Text: as §2

For the compound `COC(=O)[C@]1(C)CCC[C@]2(C)c3cc(O)c(C(=O)/C=C/c4cccnc4)cc3CCC12` (stereo partly drawn) [Compound 33, (1R,4aS)-methyl 6-hydroxy-1,4a-dimethyl-7-((E)-3-(pyridin-3-yl)acryloyl)-1,2,3,4,4a, 9,10,10a-octahydrophenanthrene-1-carboxylate], the “Selectivity Index for MCF-7” value with MCF-7 cells is 3.93. The IC50 was 2.21 ± 0.4 µM in the data set on MCF-7 cells (Homo sapiens, MCF7); 2.48 ± 0.13 µM in the data set on Hs578T cells (Homo sapiens, Hs-578T); 5.89 ± 0.77 µM with MDA-MB-231 cells (Homo sapiens); 2.21 to 5.89 µM in data set [2]; 8.68 ± 0.88 µM in data set [3] (Fibroblast). The “times less toxic than 5-FU (selectivity indices)” value in data set [1] is recorded as 2.2-3 times. Further, in data set [1], the “times more active than 5-FU” value is reported as 2.4-3.3 times. The “Selectivity Index for Hs578T” value with Hs578T cells was 3.50. Besides, in the data set on MDA-MB-231 cells, the “Selectivity Index for MDA-MB-231” value was 1.47.

As for “(1R,4aS)-methyl 7-((E)-3-(1H-pyrrol-3-yl)acryloyl)-6-hydroxy-1,4a-dimethyl-1,2,3,4, 4a,9,10,10a-octahydrophenanthrene-1-carboxylate [Compound 43]”, the half-inhibitory concentration (IC50) with MCF-7 cells came out at 4.29 ± 0.29 µM; with Hs578T cells, 16.6 ± 2.83 µM; in the data set with MDA-MB-231 cells it was 29.2 ± 3.26 µM; in data set [3], 33 ± 6.1 µM.

As for `COC(=O)[C@]1(C)CCC[C@]2(C)c3cc(O)c(C(=O)/C=C/c4ccsc4)cc3CCC12` (stereo partly drawn) [Compound 44, (1R,4aS)-methyl 6-hydroxy-1,4a-dimethyl-7-((E)-3-(thiophen-3-yl)acryloyl)-1,2,3,4,4a,9,10,10a-octahydrophenanthrene-1-carboxylate], in the data set with MCF-7 cells, the “Selectivity Index for MCF-7” value came out at 12.76. For the same compound, the IC50 in the data set with MCF-7 cells (Homo sapiens, MCF7) amounted to 3.45 ± 0.36 µM; with Hs578T cells (Homo sapiens, Hs-578T), 21.5 ± 1.2 µM; with MDA-MB-231 cells (Homo sapiens), 25.2 ± 0.84 µM; in data set [3] (Fibroblast), 44 ± 1.84 µM. For the same compound, the “Selectivity Index for Hs578T” value in the data set with Hs578T cells came to 2.05. The “Selectivity Index for MDA-MB-231” value with MDA-MB-231 cells turned out to be 1.75.

Usually IC50 stands for the concentration that gives 50% inhibition.
